Read-outs that look alike come from different tables or passages of the source.
What was measured:
[1] = tested on: NO production in LPS-induced RAW 264.7 macrophages; assay: Inhibition of LPS induced NO production in RAW264.7 macrophages (Griess reagent); assay type: cell-based, mouse
Experimental: All compounds were assayed by measuring the inhibitory effects on NO production induced by LPS in mouse macrophage RAW 264.7 cells. The RAW 264.7 cells were seeded in each well of a 96-well plate at a concentration of 5 × 10^5 cells/ml in DMEM medium containing 10% fetal bovine serum, 2 mmol/l glutamine, 100 U/ml penicillin, and 100 μg/ml streptomycin. After incubation at 37°C in a humidified atmosphere of 5% CO2 air for 12 h, cells were treated with LPS (1 μg/ml) and compounds ([…], and compound was dissolved in DMSO to dilute until the final DMSO concentration <0.1%, v/v), then incubation for 24 h at 37°C. NO production was determined by measuring the quantity of nitrite in the culture medium by the Griess reagent. Aminoguanidine was selected as a positive control. A 50 μl of the supernatant of culture medium was mixed with 100 μl of the Griess reagent. Using nitrite to generate a standard curve, nitrite production was measured by a microplate reader at 540 nm. Cell viability was examined by the MTT method (Wu et al., [2016]). The compounds with inhibitory rate more than 50% at a dose of 50 μg/ml were further detected in the gradient concentrations to calculate IC50 values. […]
(§1) 7. Assay for inhibition toward nitric oxide production in RAW264.7 macrophages The experiment was conducted according to a literature procedure.1 Murine monocytic RAW264.7 cells grown in 96-well cell culture plates (2 × 10^5 cells/well) and pretreated with serial concentrations of the compounds 1‒8 for 30 min, followed by stimulation with LPS (1 μg/mL) under a humidified atmosphere with 5% CO2 at 37°C. After 24 h, the NO production of the supernatant was determined by adding the 100 μL of Griess reagent. Subsequently, the MTT
(§2) [3-(4,5-dimethylthiazol-2-yl)-2,5-diphenyltetrazolium bromide] reduction2 was used to evaluate the cell viability, and results were expressed as the mean value of triplicate determinations. The positive control was aminoguanidine.2 […]

[2] = Cytotoxic activity toward tumor cell line SMMC7721; assay type: cell-based; details: human, SMMC7721 tumor cells
[3] = Cytotoxic activity toward tumor cell line U937; assay type: cell-based; details: human, U937 tumor cells
[4] = Cytotoxic activity toward tumor cell line A549; assay type: cell-based; details: human, A549 tumor cells
[5] = Cell viability of RAW264.7 macrophages (MTT method); assay type: cell-based, mouse; details: mouse
Experimental: as §1, §2

[6] = tested on: HBV virus in HepG2.2.15 cells; assay: In vitro anti-HBV effects (HBV DNA, real time PCR); assay type: cell-based; details: 10 μM
Experimental: HepAD38 cells were cultured with DMEM in 48-well plate at 1 × 10^5 cells/well for 24 h, then treated with 10 μM of each compound for 72 h. After 4 days, the cells were washed with precooled PBS for 2 times. HBV progeny DNA of HepAD38 cells were extracted using QIAamp DNA Blood Mini kit (Biomiga) according to the manufacturer's instruction. Total DNA was reversely transcribed using PrimeScript RT reagent Kit (Takara, Dalian, China). PCR amplification was performed on an StepOne Plus real time PCR system (Applied Biosystems, Foster City, CA) using the SYBR Green Master Mix (Applied Biosystems, Foster City, CA). All experiments were performed in triplicate, and the relative levels of assayed HBV DNA were calculated with the delta–delta CT method using lamivudine as a positive control, and normalized to non-treated control. […]
8. Assay for in vitro anti-HBV effects
HepG2. 2. 15 cells were cultured with DMEM in 48-well plate at 1×10^5 cells/well for 24 h, then treated with 10 µM of compounds for 72 h. At d 4, these cells were washed 2 times with precooled PBS, and treated with 10 µM of compounds for 72 h.
HBV progeny DNA of HepG2. 2. 15 cells were extracted using QIAamp DNA Blood Mini kit (Biomiga) according to the manufacturer's instruction. Then total DNA was reverse transcribed using PrimeScript RT reagent Kit (Takara, Dalian, China). The primers were designed and synthesized by Takara, and the sequences of the primers […]
PCR amplification was performed on an StepOne Plus real time PCR system (Applied Biosystems, Foster City, CA) using the SYBR Green Master Mix (Applied Biosystems, Foster City, CA). All experiments were performed in triplicate, and the relative levels of assayed HBV DNA were calculated with the […]
delta‒delta CT method using lamivudine expressions as positive control, and normalized to non-treated control. […]
(Takara, Dalian, China). The primers were designed and synthesized by Takara, the […]
performed on an StepOne Plus real time PCR system (Applied Biosystems, Foster City, CA) using the SYBR Green Master Mix (Applied Biosystems, Foster City, CA). […]

HaCaT cells = assay: Protection against UVB-induced cell damage in HaCaT cells (MTT assay); assay type: cell-based; details: HaCaT cells, UVB 30 mJ/cm^2, 20 μM, 24 h; UVB alone 70% of normal group
Experimental: HaCaT cells were seeded at 5 × 10^5 cells per well in 6-well plates and incubated under starvation conditions for 24 h using serum-free MEM. HaCaT cells were exposed to UVB irradiation (UVB lamp: SUV-1000, Sigma-China) at a dose of 30 mJ/cm^2. After UVB irradiation, DMEM medium containing 1 (20 μM) or epigallocatechin gallate (20 μM) was added and the cells were incubated for 24 h, and then the MTT assay was performed.

[7] = RAW264.7 macrophages, RAW264.7, MTT, Table 3, read-out: CC50 (μM) Cytotoxicity
[8] = RAW264.7 macrophages, Table S9 of the supplement, read-out: CC50 (M), 50% cytotoxic concentration
[9] = Mus musculus, RAW264.7, 24 h, LPS 1 μg/ml, 24 h
[10] = Mus musculus, RAW264.7, Table S9 of the supplement, read-out: IC50 (M), 50% inhibitory concentration
[11] = RAW264.7, MTT, Table 3, read-out: CC50 (μM) Cytotoxicity
[12] = Table S9 of the supplement, read-out: CC50 (M), 50% cytotoxic concentration
[13] = Mus musculus, RAW264.7, read-out: IC50 (M), 50% inhibitory concentration

| Structure (SMILES) | IC50 [2] [µM] | IC50 [3] [µM] | IC50 [4] [µM] | CC50 at 24 h [5, 7] [µM] | CC50 at 24 h [5, 8] [µM] | inhibition at 50 µg/mL [1, 9] [%] | inhibitory rate of DNA expression of the HBV virus [6] [%] | IC50 [1, 10] [µM] | further results |
| --- | --- | --- | --- | --- | --- | --- | --- | --- | --- |
| N=C(N)NN [Aminoguanidine, reference compound] | – | – | – | – | – | – | – | – | IC50 ([1]; LPS 1 μg/ml, 24 h, Table 3, read-out: IC50 (μM) NO): 7.62 ± 0.08 µM |
| C=C1C2(C)CC3C4(C)C=CC(=O)OC(C)(C)C4CCC3(C)C13C(=O)OC(C)C3(O)C2=O [Compound 2, (5aS, 5bS, 7R, 8aR, 9S, 11aR, 11bS, 13aS)-8a-hydroxy-1,1,5a, 7,9, 11b-hexamethyl-14-methylene-5a, 5b, 6,7,8a, 9, 11b, 12, 13, 13a-decahydro-1H, 11H-7,11a-methanofuro[3″,4″:3′,4′]cyclohepta[1′,2′:3,4]benzo[1,2-c]oxepine-3,8,11-trione] | > 10 | > 10 | > 10 | > 100 | > 50 | 58 | – | – | inhibition toward NO production (in words) ([1]; LPS-induced RAW 264.7 macrophages): moderate inhibition; IC50 ([1]; Mus musculus, RAW264.7, 24 h, LPS 1 μg/ml, 24 h, Table 3, read-out: IC50 (μM) NO): 37.7 ± 5.25 µM |
| C=C1[C@@]2(C)C[C@H]3[C@](C)(CCC(=O)OC)[C@@H](C(C)(C)O)CC[C@]3(C)[C@@]13C(=O)O[C@H](C)[C@@]3(O)C2=O [Compound 4, methyl 3-((3R, 3aR, 5R, 6aS, 7S, 8S, 10aS, 10bR)-3a-hydroxy-8-(2-hydroxypropan-2-yl)-3,5,7,10a-tetramethyl-11-methylene-1,4-dioxodecahydro-1H,3H-5,10b-methanobenzo[3,4]cyclohepta[1,2-c]furan-7-yl)propanoate] | > 10 | > 10 | > 10 | > 100 | > 50 | 32 | 15 | > 50 | – |
| C=C1[C@@]2(C)C[C@H]3[C@](C)(CCC(=O)OC)[C@@H](C(C)(C)O)CC[C@]3(C)[C@@]13C(=O)O[C@@H](C)[C@@]3(O)C2=O [Compound 5, methyl 3-((3S, 3aR, 5R, 6aS, 7S, 8S, 10aS, 10bR)-3a-hydroxy-8-(2-hydroxypropan-2-yl)-3,5,7,10a-tetramethyl-11-methylene-1,4-dioxodecahydro-1H,3H-5,10b-methanobenzo[3,4]cyclohepta[1,2-c]furan-7-yl)propanoate] | > 10 | > 10 | > 10 | > 100 | > 50 | 36 | 10 | > 50 | – |
| C=C1C2(C)CC3C4(C)C(O)C5CC(C)(OC5=O)C4CCC3(C)C13C(=O)OC(C)C3(O)C2=O [Compound 6, (1R, 4S, 5R, 5aS, 5bR, 7R, 8aR, 9R, 11aR, 11bS, 13aS)-5,8a-dihydroxy-1,5a,7,9,11b-pentamethyl-14-methylenedodecahydro-1H,11H-1,4:7,11a-dimethanofuro[3″,4″:3′,4′]cyclohepta[1′,2′:3,4]benzo[1,2-c]oxepine-3,8,11-trione] | > 10 | > 10 | > 10 | – | – | – | – | – | CC50 at 24 h [5, 11]: > 100 µM; CC50 at 24 h [5, 12]: > 50 µM; IC50 [1, 13]: > 50 µM |
| C=C1[C@@]2(C)C[C@H]3[C@](C)(CCC(=O)OC)[C@@H](C(C)(C)O)CC[C@]3(C)[C@]1(C(=O)OC)C(=O)[C@@](C)(O)C2=O [Compound 7, preaustinoid D] | > 10 | > 10 | > 10 | > 100 | > 50 | 28 | – | > 50 | – |
| C=C1[C@@]2(C)C[C@H]3[C@]4(C)C=CC(=O)OC(C)(C)[C@H]4CC[C@]3(C)[C@]1(C(=O)OC)C(=O)[C@@](C)(O)C2=O [Compound 8, preaustinoid A2] | > 10 | > 10 | > 10 | – | – | – | – | – | CC50 at 24 h [5, 11]: > 100 µM; CC50 at 24 h [5, 12]: > 50 µM; IC50 [1, 13]: > 50 µM |
| O=C(O[C@@H]1Cc2c(O)cc(O)cc2O[C@@H]1c1cc(O)c(O)c(O)c1)c1cc(O)c(O)c(O)c1 [epigallocatechin gallate, reference compound] | – | – | – | – | – | – | – | – | cell viability after UVB irradiation (HaCaT cells): 75% |
| Nc1ccn([C@@H]2CS[C@H](CO)O2)c(=O)n1 [lamivudine, reference compound] | – | – | – | – | – | – | 75 | – | – |

Source: PMC6072878, “Brasilianoids A–F, New Meroterpenoids From the Sponge-Associated Fungus Penicillium brasilianum” (Frontiers in Chemistry, 2018)
